Laboratory results as given in patent US20250034211A1, “C-TERMINAL EXTENDED P53 ACTIVATOR CROSSLINKED PEPTIDOMIMETIC MACROCYCLES AGAINST MDM2/MDMX” (Merck Sharp & Dohme LLC, priority 2021, published 2025).
Converted amounts (≈) assume the structure as drawn. Where two headings read alike, the source gives them in different places. Where a SMILES comes first, the peptide text is derived from it. Bridges are numbered along the chain shown (N, C = ends). [ ]: non-standard residue; d: D form. Lys(N3) = [N-]=[N+]=NCCCC[C@H](N)C(=O)O; Gla = N[C@@H](CC(C(=O)O)C(=O)O)C(=O)O; R8 = C=CCCCCCC[C@@](C)(N)C(=O)O; Cba = N[C@@H](CC1CCC1)C(=O)O; S5 = C=CCCC[C@](C)(N)C(=O)O; Aib = CC(C)(N)C(=O)O; βAla = NCCC(=O)O

Columns and labels:
[1] = target: T1, MDM2 (1-125; SEQ ID NO 14) (Homo sapiens, UniProt Q00987); assay: MDM2 binding assay (fluorescence anisotropy competition, FP)
T1 construct: GST (N); His6 (internal); TEV cleavage site ENLYFQG (internal); made in house; host or cells: E. coli BL21 (DE3) Rosetta T1R
Description: [P] is the protein concentration (MDM2), [L] is the labeled peptide concentration, r is the anisotropy measured, r0 is the anisotropy of the free peptide, rb is the anisotropy of the MDM2-FAM-labeled peptide complex, Kd is the dissociation constant, [L]t is the total FAM labeled peptide concentration, and [P]t is the total MDM2 concentration. […] The competing molecules were then titrated against the complex of the FAM-labeled peptide and protein. Apparent Kd values were determined by fitting the experimental data to the equations shown below:
[L]st and [L]t denote labeled ligand and total unlabeled ligand input concentrations, respectively. Kd2 is the dissociation constant of the interaction between the unlabeled ligand and the protein. In all competition experiments, it is assumed that [P]t>[L]st, otherwise considerable amounts of free labeled ligand would always be present and would interfere with measurements. […] The FAM-labeled peptide was dissolved in dimethyl sulfoxide (DMSO) at 1 mM and diluted into experimental buffer. Readings were carried out with an Envision Multilabel Reader (PerkinElmer). […] All titrations were carried out in triplicate. Curve-fitting was carried out using Prism 4.0 (GraphPad). […] Negative control titrations of the ligands under investigation were also carried out with the fluorescently labeled peptide (in the absence of MDM2) to ensure no interactions were occurring between the ligands and the FAM-labeled peptide.

[2] = test system: p53 (HCT116 cells stably transfected with a p53 responsive β-lactamase reporter); assay: p53 beta-lactamase reporter gene cellular functional assay; format: cell-based
Description: HCT116 cells were stably transfected with a p53 responsive β-lactamase reporter, and were seeded into a 384-well plate at a density of 8,000 cells per well. Cells were maintained in McCoy's 5A Medium with 10% fetal bovine serum ([…]), Blasticidin and Penicillin/Streptomycin. The cells were incubated overnight and followed by removal of cell growth media and replaced with Opti-MEM either containing 0% FBS or 10% FBS. Peptides were then dispensed to each well using a liquid handler, ECHO 555 and incubated for 4/16 hours. Final working concentration of dimethyl sulfoxide (DMSO) was 0.5%. β-Lactamase activity was detected using the ToxBLAzer Dual Screen (Invitrogen) as per manufacturer's instructions. Measurements were done using Envision multiplate reader (Perkin-Elmer). Maximum p53 activity was defined as the amount of β-lactamase activity induced by 50 μM azide-ATSP-7041 (stapled p53 peptide; Aileron Therapeutics, Inc.). This was determined as the highest amount of p53 activity induced by azide-ATSP-7041 by titration on HCT116 cells.

HCT116 cells = assay: Lactate dehydrogenase release assay (LDH); format: cell-based
Description: HCT116 cells were seeded into a 384-well plate at a density of 8000 cells per well. Cells were maintained in McCoy's 5A Medium with 10% fetal bovine serum (FBS), Blasticidin and Penicillin/Streptomycin. The cells were incubated overnight followed by the removal of cell media and the addition of Opti-MEM Medium without FBS. Cells were then treated with peptides for 4/16 hours in Opti-MEM either in 10% FBS or serum free. Final concentration of DMSO was 0.5%. Lactate dehydrogenase release was detected using CytoTox-ONE Homogenous Membrane Integrity Assay Kit (Promega) as per manufacturer's instructions. Measurements were carried out using Tecan plate reader. Maximum LDH release was defined as the amount of LDH released induced by the lytic peptide (iDNA79) and used to normalize the results.

[3] = test system: Jump-In T-REx CHO-K1 BLA cells; assay: Tetracycline beta-lactamase reporter gene assay (counter screen); format: cell-based
Description: Based on Jump-In™ T-REx™ CHO-K1 BLA cells and contain a stably integrated β-lactamase under the control of an inducible CMV promoter. Cells were seeded into a 384-well plate a density of 4000 cells per well. Cells were maintained in Dulbecco's Minimal Eagle Medium (DMEM) with 10% fetal bovine serum (FBS), Blasticidin and Penicillin/Streptomycin. The cells were incubated for 24 hours, followed by cell media removal and replacement with Opti-MEM either containing 10% FBS or 0% FBS. Peptides were then dispensed to each well using a liquid handler, ECHO 555 and incubated for 4/16 hours. Final working concentration of DMSO was 0.5%. β-Lactamase activity was detected using the ToxBLAzer Dual Screen (Invitrogen) as per manufacturer's instructions. Measurements were carried out using Envision multiplate reader (Perkin Elmer). Counter Screen activity was defined as the amount of 0-lactamase activity induced by tetracycline.

[4] = Circular dichroism (CD) helicity; format: physicochemical
Description: The dried peptide was reconstituted in a buffer containing 1 mM HEPES pH 7.4 and 5% methanol to a concentration of 1 mM. The peptide sample was placed in a quartz cuvette with a path length of 0.2 cm and a CD spectrum was recorded from 300 to 190 nm at 25° C. using the Chirascan-plus qCD machine (Applied Photophysics). The actual concentration of the peptide was determined by the absorbance of the peptide at […]. An estimate of the secondary structure components of the peptide was carried out by converting the CD spectrum to mean residue ellipticity before deconvoluting using the CDNN software (distributed by Applied Photophysics). All experiments were done in duplicate.

p53 null Ca Ski = conditions: for % inhibition at maximum concentration in p53 null negative control cell line: maximum assay concentration (50 uM)
Solubility (PBS, pH 7) = conditions: for solubility: PBS, pH 7
[5] = read-out: HCT116 proliferation EC50, 72 h, 10% serum

T1 sequence (Q00987 with tags, fused parts or gaps): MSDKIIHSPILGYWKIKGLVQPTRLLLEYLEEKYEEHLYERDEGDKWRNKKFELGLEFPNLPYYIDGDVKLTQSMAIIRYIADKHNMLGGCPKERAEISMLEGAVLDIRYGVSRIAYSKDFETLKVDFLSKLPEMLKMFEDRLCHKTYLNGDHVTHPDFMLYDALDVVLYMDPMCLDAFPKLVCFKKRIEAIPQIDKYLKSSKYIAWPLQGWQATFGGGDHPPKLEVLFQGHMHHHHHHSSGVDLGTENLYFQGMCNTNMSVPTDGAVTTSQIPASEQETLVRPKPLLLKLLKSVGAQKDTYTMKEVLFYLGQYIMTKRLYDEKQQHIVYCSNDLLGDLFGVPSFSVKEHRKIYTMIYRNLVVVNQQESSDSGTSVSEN

SMILES | Kd [1] [nM] | EC50 ([2]; 0% serum at 4 hours) [nM] | EC50 ([2]; 10% serum at 16 hours) [nM] | EC50 (HCT116 cells; 0% FBS, 4 h) [nM] | EC50 (HCT116 cells; 10% FBS, 16 h) [nM] | EC50 ([3]; 0% FBS, 4 h) [nM] | EC50 ([3]; 10% FBS, 16 h) [nM] | CD (% helicity) [4] [%] | HCT116 proliferation % Max (HCT116; 72 h, 10% serum) [%] | EC50 (HCT116; [5]) [nM] | EC50 (HCT116; read-out: cellular efficacy in cell proliferation HTC116 p53 positive control cell lines) [nM] | % inhibition at maximum concentration in p53 null negative control cell line (p53 null Ca Ski) [%] | logD (HPLC LogD) | solubility (in words) (Solubility (PBS, pH 7)) | solubility (Solubility (PBS, pH 7)) [µM] | fold improvement in HTC116 cell proliferation assay (HCT116; as compared to Macrocycle 3) | p53 null Ca Ski proliferation % Max (p53 null Ca Ski; 72 h, 10% serum) [%] | chromatographic logD (HPLC LogD)
CC(=O)N[C@@H](CCCCN=[N+]=[N-])C(=O)NCCC(=O)N[C@@H](CC(C)C)C(=O)N[C@H](C(=O)N[C@@H](Cc1ccccc1)C(=O)N[C@]1(C)CCCCCCC=CCCC[C@@](C)(C(=O)N[C@@H](C)C(=O)N[C@@H](C)C(=O)N[C@@H](Cc2ccccc2)C(=O)N[C@@H](C)C(=O)N[C@@H](C)C(=O)N[C@@H](Cc2ccccc2)C(N)=O)NC(=O)[C@H](CC2CCC2)NC(=O)[C@H](CCC(N)=O)NC(=O)[C@H](C)NC(=O)[C@H](Cc2c[nH]c3ccccc23)NC(=O)[C@H](Cc2ccc(O)cc2)NC(=O)[C@H](CCC(=O)O)NC1=O)[C@@H](C)O [Macrocycle 4, Ac-K(N3)-betaAla-L-T-F-X1a-E-Y-W-A-Q-Cba-X2a-AAFAAF-NH2 (olefin staple from X1a to X2a)] (Ac-[Lys(N3)][βAla]LTF[R8]EYWAQ[Cba][S5]AAFAAF-NH2; staple 6-13) | 27 | 36 | 237 | > 50000 | > 50000 | 34500 | > 50000 | 45 | 68 | 1210 | 1220 | – | – | – | – | – | – | –
CC(=O)N[C@@H](CCCCN=[N+]=[N-])C(=O)NCCC(=O)N[C@@H](CC(C)C)C(=O)N[C@H](C(=O)N[C@@H](Cc1ccccc1)C(=O)N[C@]1(C)CCCCCCC=CCCC[C@@](C)(C(=O)N[C@@H](C)C(=O)N[C@@H](C)C(=O)N[C@@H](Cc2ccccc2)C(=O)NC(C)(C)C(=O)N[C@@H](C)C(=O)N[C@@H](C)C(N)=O)NC(=O)[C@H](CC2CCC2)NC(=O)[C@H](CCC(N)=O)NC(=O)[C@H](C)NC(=O)[C@H](Cc2c[nH]c3ccccc23)NC(=O)[C@H](Cc2ccc(O)cc2)NC(=O)[C@H](CCC(=O)O)NC1=O)[C@@H](C)O [Macrocycle 8, Ac-K(N3)-betaAla-L-T-F-X1a-E-Y-W-A-Q-Cba-X2a-AAF-Aib-AA-NH2(olefinstaple from X1ato X2a)] (Ac-[Lys(N3)][βAla]LTF[R8]EYWAQ[Cba][S5]AAF[Aib]AA-NH2; staple 6-13) | 7.4 | – | – | 16700 | > 50000 | > 50000 | > 50000 | 35 | – | – | – | – | – | – | – | – | – | –
CC(=O)N[C@@H](CCCCN=[N+]=[N-])C(=O)NCCC(=O)N[C@@H](CC(C)C)C(=O)N[C@H](C(=O)N[C@@H](Cc1ccccc1)C(=O)N[C@]1(C)CCCCCCC=CCCC[C@@](C)(C(=O)N[C@@H](C)C(=O)N[C@@H](C)C(=O)N[C@@H](CCC(=O)O)C(=O)N[C@@H](C)C(=O)N[C@@H](C)C(=O)N[C@H](C)C(N)=O)NC(=O)[C@H](CC2CCC2)NC(=O)[C@H](CCC(N)=O)NC(=O)[C@H](C)NC(=O)[C@H](Cc2c[nH]c3ccccc23)NC(=O)[C@H](Cc2ccc(O)cc2)NC(=O)[C@H](CCC(=O)O)NC1=O)[C@@H](C)O [Macrocycle 10, Ac-K(N3)-betaAla-L-T-F-X1a-E-Y-W-A-Q-Cba-X2a-AAEAA-(D-Ala)-NH2(olefinstaple from X1ato X2a)] (Ac-[Lys(N3)][βAla]LTF[R8]EYWAQ[Cba][S5]AAEAA[dA]-NH2; staple 6-13) | 3.1 | – | – | > 50000 | > 50000 | – | – | – | – | – | – | −18 | 2.14 | excellent solubility | 154 (≈ 343 µg/mL) | – | – | –
CC(=O)N[C@@H](CCCCN=[N+]=[N-])C(=O)NCCC(=O)N[C@@H](CC(C)C)C(=O)N[C@H](C(=O)N[C@@H](Cc1ccccc1)C(=O)N[C@]1(C)CCCCCCC=CCCC[C@@](C)(C(=O)N[C@@H](CC(C(=O)O)C(=O)O)C(=O)N[C@@H](C)C(=O)N[C@@H](C)C(=O)N[C@@H](C)C(=O)N[C@@H](C)C(=O)N[C@@H](C)C(N)=O)NC(=O)[C@H](CC2CCC2)NC(=O)[C@H](CCC(N)=O)NC(=O)[C@H](C)NC(=O)[C@H](Cc2c[nH]c3ccccc23)NC(=O)[C@H](Cc2ccc(O)cc2)NC(=O)[C@H](CCC(=O)O)NC1=O)[C@@H](C)O [Macrocycle 11, Ac-K(N3)-betaAla-L-T-F-X1a-E-Y-W-A-Q-Cba-X2a-(Gla)AAAAA-NH2(olefinstaple from X1ato X2a)] (Ac-[Lys(N3)][βAla]LTF[R8]EYWAQ[Cba][S5][Gla]AAAAA-NH2; staple 6-13) | 0.32 | – | 527 | > 50000 | > 50000 | > 50000 | > 50000 | – | 73 | 790 | – | −18 | – | excellent solubility | 163 (≈ 370 µg/mL) | at least 2 fold | −18 | 2.25
CC(=O)N[C@@H](CCCCN=[N+]=[N-])C(=O)NCCC(=O)N[C@@H](CC(C)C)C(=O)N[C@H](C(=O)N[C@@H](Cc1ccccc1)C(=O)N[C@]1(C)CCCCCCC=CCCC[C@@](C)(C(=O)N[C@@H](C)C(=O)N[C@@H](C)C(=O)N[C@@H](C)C(N)=O)NC(=O)[C@H](CC2CCC2)NC(=O)[C@H](CCC(N)=O)NC(=O)[C@H](C)NC(=O)[C@H](Cc2c[nH]c3ccccc23)NC(=O)[C@H](Cc2ccc(O)cc2)NC(=O)[C@H](CCC(=O)O)NC1=O)[C@@H](C)O [Reference Macrocycle 1, Ac-K(N3)-betaAla-L-T-F-X1a-E-Y-W-A-Q-Cba-X2a-AAA-NH2 (olefin staple from X1a to X2a), reference compound] (Ac-[Lys(N3)][βAla]LTF[R8]EYWAQ[Cba][S5]AAA-NH2; staple 6-13) | 36 | 339 | 847 | > 50000 | – | > 50000 | – | – | – | – | – | – | 2.93 | – | 108 (≈ 211 µg/mL) | – | – | –
